From patent US8440442B2, “Method of assaying 5-FU” (Myriad Genetics, Inc, priority 2009, dated 2013)

Experiments:
[1] = target: T1, dihydropyrimidine dehydrogenase (DPD) (Homo sapiens, UniProt Q12882); test: 5-Vinyluracil, 5-iodouracil and gimeracil as stabilizer of 5-FU in spiked donor blood; assay type: biochemical; details: 500 ng/mL 5-FU; 5-iodouracil 10/40 μg/mL, 5-vinyluracil 5/20 μg/mL, gimeracil 300/1,200 ng/mL; 45 minutes room temperature (FIG. 3)
T1 construct: from tissue; host or cells: donor whole blood (K2EDTA), plasma separated from it, and WBC/buffy coat
T1 sequence (Q12882 4-1025): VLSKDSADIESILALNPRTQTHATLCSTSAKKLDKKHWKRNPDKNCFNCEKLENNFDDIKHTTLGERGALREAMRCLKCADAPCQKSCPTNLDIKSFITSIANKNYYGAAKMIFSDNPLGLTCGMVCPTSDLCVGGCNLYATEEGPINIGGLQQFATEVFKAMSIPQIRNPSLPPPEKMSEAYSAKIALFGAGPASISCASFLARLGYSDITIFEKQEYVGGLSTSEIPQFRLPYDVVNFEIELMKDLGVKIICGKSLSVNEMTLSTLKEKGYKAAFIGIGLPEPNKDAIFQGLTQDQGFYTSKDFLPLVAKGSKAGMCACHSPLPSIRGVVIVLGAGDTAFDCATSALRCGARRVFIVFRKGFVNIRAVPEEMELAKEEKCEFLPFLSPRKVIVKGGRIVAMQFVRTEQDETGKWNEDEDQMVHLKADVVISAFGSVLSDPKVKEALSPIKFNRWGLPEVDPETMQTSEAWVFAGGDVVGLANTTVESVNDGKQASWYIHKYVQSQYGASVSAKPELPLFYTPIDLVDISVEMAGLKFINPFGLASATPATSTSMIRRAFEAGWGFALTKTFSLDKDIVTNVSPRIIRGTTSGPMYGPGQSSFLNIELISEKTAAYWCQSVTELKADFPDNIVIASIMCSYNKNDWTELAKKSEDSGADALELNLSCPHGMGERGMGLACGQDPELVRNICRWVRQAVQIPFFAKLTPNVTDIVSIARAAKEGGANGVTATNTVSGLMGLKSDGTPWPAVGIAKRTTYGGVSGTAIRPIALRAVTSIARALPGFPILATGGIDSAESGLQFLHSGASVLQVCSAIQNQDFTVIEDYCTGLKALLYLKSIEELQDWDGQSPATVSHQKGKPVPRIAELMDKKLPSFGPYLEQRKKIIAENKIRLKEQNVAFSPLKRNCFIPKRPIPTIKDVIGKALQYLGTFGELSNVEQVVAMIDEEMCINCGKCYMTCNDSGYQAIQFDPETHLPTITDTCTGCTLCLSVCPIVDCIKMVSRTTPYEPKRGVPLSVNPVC
Method: (§1) In the following illustrative examples, 5-FU was measured using an antibody-based agglutination assay on the Olympus AU680 Analyzer using an antibody disclosed in U.S. Pat. No. 7,205,116. Specifically, the concentration of 5-FU in a sample is determined based on the absorbance of a sample, which is determined by the amount of aggregation by the nanoparticles. The system requires two reagents, which when mixed in the absence of free 5-FU will form large aggregates of nanoparticles and scatter light to result in a higher absorption value. In the presence of free 5-FU, the agglutination reaction becomes somewhat inhibited and scattering of light is less, causing a lower absorption value. The instrument is calibrated twice monthly, and a curve is generated (Absorbance vs. 5-FU concentration). Absorbance values from individual samples are compared against this curve to determine concentration.
(§2) Generally in the agglutination assay, 95 μl of a buffer containing 5-FU-labeled amino-dextran is pipetted to a cuvette, followed by 7 μL of a filtered plasma sample. The sample and reagent are mixed and then incubated for about 3.5 minutes. 95 μl of 5-FU antibody-conjugated nanoparticles is pipetted into the cuvette and mixed. The complete reaction incubates for about 6.2 minutes. A series of 27 measurements at 600 nm are taken at regular intervals by the AU680 analyzer throughout this process, and 5-FU concentration is calculated using the measurements from two specific time points.
Three tubes of blood (spray-on K2EDTA tubes, 10 mL) was drawn from each of six donors, and blood tubes were gently inverted several times to mix anti-coagulant. Blood was pooled and kept separate by donor. An aliquot of each blood sample was transferred to a new conical tube, and a calculated volume of stock 5-FU (at 200 ng/μL) was spiked into each blood sample for a final concentration of 500 ng/mL 5-FU. Each blood sample was aliquotted to a set of four tubes (5 mL blood per tube). Each set of tubes was different, but included a combination of the conditions below: […]

[2] = target: T1, dihydropyrimidine dehydrogenase (DPD); test: Low concentrations of gimeracil in 5-FU spiked blood, plasma 5-FU initial and after 24 hr; assay type: biochemical; details: for 5-FU concentration, Initial / 5-FU concentration, 24 hr: blood spiked 500 ng/mL 5-FU; for 5-FU concentration, Initial: after plasma collection; for 5-FU concentration, 24 hr: plasma 24 hours at room temperature
Method: as §1, §2
Four tubes of blood (spray-on K2EDTA tubes, 10 mL) was drawn from each of five donors, and gently inverted several times to mix anti-coagulant. Blood was pooled by donor into conical tubes. An aliquot of each donor's blood was transferred to a clean tube. A calculated volume of 5-FU stock (at 200 ng/μL) was added to each blood sample to achieve a final concentration of 500 ng/mL 5-FU, and tubes were inverted to mix. Spiked blood was aliquotted into clean tubes, nine tubes per donor and 3.5 mL of blood per tube. Gimeracil was added to the tubes at a final concentration of 200, 400, or 600 ng/mL for each tube. In addition, in control samples, methanol was added to the blood instead of gimeracil, in order to serve as a negative control. The blood tubes sat at room temperature for 45 minutes after the addition of the gimeracil or methanol. At the appropriate times, the blood tubes were centrifuged at 2000×g for 10 minutes at room temperature to separate plasma. Plasma was aspirated immediately after centrifugation, and the plasma was dispensed into clean tubes. Plasma samples were run using standard conditions for Olympus AU680 analyzer (200 μL, spin for 15 minutes at 12,500 rpm). Measurements of 5-FU concentration were taken after plasma collection (“initial”) and 24 hours (“24 hr”) thereafter. For the 24 hr measurement, plasma was stored at room temperature during the 24 hours. As shown in Table 2 and FIG. 4, low concentrations of gimeracil in blood is also effective at inhibiting DPD-mediated degradation of 5-FU. The overall percent difference in 5-FU concentration between the samples containing 200 ng/mL and 600 ng/mL gimeracil is less than 1%.

Oc1cc(O)c(Cl)cn1 [Gimeracil, 5-chloro-2,4-dihydroxypyridine]
stabilizing 5-FU in blood samples [1]: effective | overall percent difference in 5-FU concentration between samples containing 200 ng/mL and 600 ng/mL gimeracil ([2]; 500 ng/mL 5-FU spiked blood): less than 1% | 5-FU concentration, Initial ([2]; gimeracil 200 ng/mL): 518.7 | 5-FU concentration, 24 hr ([2]; gimeracil 200 ng/mL): 523.4 | 5-FU concentration, Initial ([2]; gimeracil 400 ng/mL): 523.0 | 5-FU concentration, 24 hr ([2]; gimeracil 400 ng/mL): 521.6 | 5-FU concentration, Initial ([2]; gimeracil 600 ng/mL): 519.5 | 5-FU concentration, 24 hr ([2]; gimeracil 600 ng/mL): 523.3 | inhibiting DPD-mediated degradation of 5-FU ([2]; low concentrations of gimeracil in blood (200, 400, 600 ng/mL), Table 2 and FIG. 4): effective
